Data on one compound can be found in patent publication US20140205537A1, “LRRK2 INHIBITORS” (ZENOBIA THERAPEUTICS, INC., priority 2011, published 2014).

The target in the assay is IGF1R (Homo sapiens, UniProt P08069). As to the kind of experiment: Kinase selectivity panel: IGF1R. In kind it is biochemical.
IGF1R, sequence (P08069 31-1367, species assumed): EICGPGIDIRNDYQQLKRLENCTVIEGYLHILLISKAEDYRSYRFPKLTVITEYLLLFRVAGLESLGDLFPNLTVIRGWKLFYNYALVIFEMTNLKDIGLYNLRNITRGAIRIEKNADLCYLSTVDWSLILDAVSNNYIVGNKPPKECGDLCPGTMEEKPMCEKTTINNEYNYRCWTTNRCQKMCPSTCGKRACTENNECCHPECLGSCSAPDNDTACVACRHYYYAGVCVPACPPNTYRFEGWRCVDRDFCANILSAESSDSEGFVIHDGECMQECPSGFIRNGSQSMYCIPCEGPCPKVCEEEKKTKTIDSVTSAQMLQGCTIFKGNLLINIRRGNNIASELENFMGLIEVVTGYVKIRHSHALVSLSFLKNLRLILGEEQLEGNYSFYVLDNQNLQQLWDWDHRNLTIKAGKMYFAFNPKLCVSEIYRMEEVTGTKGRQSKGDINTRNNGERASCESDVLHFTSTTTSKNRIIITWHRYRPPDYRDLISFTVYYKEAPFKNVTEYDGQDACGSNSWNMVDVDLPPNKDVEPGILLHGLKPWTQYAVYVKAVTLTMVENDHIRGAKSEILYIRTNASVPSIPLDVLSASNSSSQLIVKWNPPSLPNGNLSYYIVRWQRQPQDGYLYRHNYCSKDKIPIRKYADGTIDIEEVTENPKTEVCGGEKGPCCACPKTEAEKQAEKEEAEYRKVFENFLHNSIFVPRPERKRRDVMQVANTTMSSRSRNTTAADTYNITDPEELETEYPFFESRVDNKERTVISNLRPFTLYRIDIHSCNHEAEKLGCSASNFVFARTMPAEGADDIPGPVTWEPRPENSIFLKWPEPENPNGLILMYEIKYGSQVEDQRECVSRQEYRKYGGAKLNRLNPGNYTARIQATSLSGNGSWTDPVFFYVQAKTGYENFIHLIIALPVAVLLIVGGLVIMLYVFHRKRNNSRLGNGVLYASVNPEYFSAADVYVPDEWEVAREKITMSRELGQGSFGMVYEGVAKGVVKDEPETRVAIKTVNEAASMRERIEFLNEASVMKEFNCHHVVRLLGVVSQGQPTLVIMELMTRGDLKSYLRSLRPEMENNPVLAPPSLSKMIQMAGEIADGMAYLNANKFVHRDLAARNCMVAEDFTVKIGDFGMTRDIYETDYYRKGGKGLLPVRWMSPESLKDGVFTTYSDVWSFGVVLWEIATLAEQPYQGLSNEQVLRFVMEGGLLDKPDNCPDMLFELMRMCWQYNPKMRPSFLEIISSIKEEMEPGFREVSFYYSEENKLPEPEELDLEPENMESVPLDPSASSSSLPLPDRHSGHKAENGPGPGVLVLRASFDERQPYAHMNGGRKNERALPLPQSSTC

For `COc1ccc2c(c1)/C(=C/c1cnc(C3CCOCC3)[nH]1)C(=O)N2` [Compound 18, (3Z)-5-methoxy-3-[(2-tetrahydropyran-4-yl-1H-imidazol-5-yl)methylene]indolin-2-one], testing at 0.1 µM gave an inhibition of 7%.
